For orientation: Ki means a measure of affinity in units of concentration, obtained from inhibition or displacement.

Among the data in patent US20090069565A1, “NEW INDOLE DERIVATIVES AS FACTOR XA INHIBITORS” (priority 2001, published 2009) are Ki values, retold here.

In the first test the target is human factor Xa (Homo sapiens, UniProt P00742). The test can be described thus: Factor Xa assay (chromogenic, substrate S-2765).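 Note: purified enzyme preincubated with inhibitor for 10 min before substrate addition, final reaction volume 100 µl.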 The format is biochemical.
Chain of human factor Xa (P00742 235-488 limits assumed): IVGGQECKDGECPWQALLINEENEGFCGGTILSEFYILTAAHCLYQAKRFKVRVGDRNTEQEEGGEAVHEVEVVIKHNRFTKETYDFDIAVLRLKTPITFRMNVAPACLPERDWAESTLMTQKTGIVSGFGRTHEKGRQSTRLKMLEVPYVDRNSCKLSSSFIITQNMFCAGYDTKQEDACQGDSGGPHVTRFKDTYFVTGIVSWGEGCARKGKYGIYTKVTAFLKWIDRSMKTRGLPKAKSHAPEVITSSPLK
Chain of human factor Xa (P00742 41-179 partner limits assumed): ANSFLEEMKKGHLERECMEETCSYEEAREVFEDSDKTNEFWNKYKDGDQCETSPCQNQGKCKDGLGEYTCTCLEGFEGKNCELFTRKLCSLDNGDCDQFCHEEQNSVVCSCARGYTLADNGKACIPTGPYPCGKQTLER
Conditions: not given
`O=C(c1cc2ccccc2n1Cc1cc(-c2ccc(Cl)s2)on1)N(c1ccncc1)C1CCN(c2ccncc2)CC1` [Example 204, 1-[5-(5-Chloro-thiophen-2-yl)-isoxazol-3-ylmethyl]-1H-indole-2-carboxylic acid pyridin-4-yl-(3,4,5,6-tetrahydro-2H-[1,4′]bipyridinyl-4-yl)-amide] yielded a Ki of 74 nM.

For `O=C(c1cc2cc([N+](=O)[O-])ccc2n1Cc1cc(-c2ccc(Cl)s2)on1)N(c1ccncc1)C1CCN(c2ccncc2)CC1` [Example 205, 1-[5-(5-Chloro-thiophen-2-yl)-isoxazol-3-ylmethyl]-5-nitro-1H-indole-2-carboxylic acid pyridin-4-yl-(3,4,5,6-tetrahydro-2H-[1,4′]bipyridinyl-4-yl)-amide], the inhibition constant (Ki) came out at 34 nM.

The same test, now with this note: inhibition constant for factor Xa; purified enzyme 0.5 nM, substrate S-2765 140 μM, 25° C., pH 7.8; Ki=IC50/{1+(substrate concentration/Km)}; read-out: Ki(FXa).
Consider `CC(C)N1CCC(NC(=O)c2cc3ccccc3n2Cc2cc(-c3ccc(Cl)cc3)no2)CC1` [Example 211, 1-[3-(4-Chloro-phenyl)-isoxazol-5-ylmethyl]-1H-indole-2-carboxylic acid (1-isopropyl-piperidin-4-yl)-amide], for which the inhibition constant Ki is 400 nM. `CC(C)N1CCC(NC(=O)c2cc3ccccc3n2Cc2cc(-c3ccc(Cl)cc3)on2)CC1` [Example 212, 1-[5-(4-Chloro-phenyl)-isoxazol-3-ylmethyl]-1H-indole-2-carboxylic acid (1-isopropyl-piperidin-4-yl)-amide]: the Ki stood at 810 nM. `CC(C)N1CCC(NC(=O)c2cc3ccccc3n2Cc2nc(-c3ccc(Cl)cc3)no2)CC1` [Example 213, 1-[3-(4-Chloro-phenyl)-[1,2,4]oxadiazol-5-ylmethyl]-1H-indole-2-carboxylic acid (1-isopropyl-piperidin-4-yl)-amide]: the inhibitory constant (Ki) is 2230 nM. On the same count and under the same terms, the value for `CC(C)N1CC[C@@H](NC(=O)c2cc3ccccc3n2Cc2cc(-c3ccc(Cl)s3)on2)C1` [Example 221, R-1-[5-(5-Chloro-thiophen-2-yl)-isoxazol-3-ylmethyl]-1H-indole-2-carboxylic acid (1-isopropyl-pyrrolidin-3-yl)-amide] was 48 nM. Same read-out and setting: under `CC(C)N1CC[C@H](NC(=O)c2cc3ccccc3n2Cc2cc(-c3ccc(Cl)s3)on2)C1` [Example 222, S-1-[5-(5-Chloro-thiophen-2-yl)-isoxazol-3-ylmethyl]-1H-indole-2-carboxylic (1-isopropyl-pyrrolidin-3-yl)-amide] stands 103 nM.

The same test, now with this note: read-out: Ki(FXa).
On to `CCN1CCN(NC(=O)c2cc3ccccc3n2Cc2cc(-c3ccc(Cl)s3)on2)CC1` [Example 203, 1-[5-(5-Chloro-thiophen-2-yl)-isoxazol-3-ylmethyl]-1H-indole-2-carboxylic acid (4-ethyl-piperazin-1-yl)-amide], for which the Ki was 28 nM. Same read-out and setting: under `N#Cc1c(C(=O)NC2CCN(c3ccncc3)CC2)n(Cc2cc(-c3ccc(Cl)s3)on2)c2ccccc12` [Example 206, 1-[5-(5-Chloro-thiophen-2-yl)-isoxazol-3-ylmethyl]-3-cyano-1H-indole-2-carboxylic acid (3,4,5,6-tetrahydro-2H-[1,4′]bipyridinyl-4-yl)-amide] stands 12 nM; under `COc1ccc(C#N)c2c1c(C#N)c(C(=O)NC1CCN(C(C)C)CC1)n2Cc1cc(-c2ccc(Cl)s2)on1` [Example 208, 1-[5-(5-Chloro-thiophen-2-yl)-isoxazol-3-ylmethyl]-3,7-dicyano-4-methoxy-1H-indole-2-carboxylic acid (1-isopropyl-piperidin-4-yl)-amide], 1 nM; under `CC(C)N1CCC(NC(=O)c2cc3ccccc3n2Cc2cc3ccc(Cl)cc3c(Cl)n2)CC1` [Example 210, 1-(1,7-Dichloro-isoquinolin-3-ylmethyl)-1H-indole-2-carboxylic acid (1-isopropyl-piperidin-4-yl)-amide], 79 nM. Same read-out and setting: under `CC(C)N1CCC(NC(=O)c2cc3cc(S(C)(=O)=O)ccc3n2CC(=O)Nc2ccc(Cl)cn2)CC1` [Example 214, 1-[(5-Chloro-pyridin-2-ylcarbamoyl)-methyl]-5-methanesulfonyl-1H-indole-2-carboxylic acid (1-isopropyl-piperidin-4-yl)-amide] stands 52 nM. On the same count and under the same terms, the value for `CC(C)N1CCC(NC(=O)c2cc3cc(S(C)(=O)=O)ccc3n2CC(=O)Nc2ccc(Cl)cc2)CC1` [Example 215, 1-[(4-Chloro-phenylcarbamoyl)-methyl]-5-methanesulfonyl-1H-indole-2-carboxylic acid (1-isopropyl-piperidin-4-yl)-amide] was 23 nM; that for `CC(C)N1CCC(NC(=O)c2cc3cc(Cl)ccc3n2CC(=O)Nc2ccc(Cl)cn2)CC1` [Example 216, 5-Chloro-1-[(5-chloro-pyridin-2-ylcarbamoyl)-methyl]-1H-indole-2-carboxylic acid (1-isopropyl-piperidin-4-yl)-amide] was 9 nM. Turning to `CC(C)N1CCC(NC(=O)c2cc3cc(F)ccc3n2CC(=O)Nc2ccc(Cl)cn2)CC1` [Example 217, 1-[(5-Chloro-pyridin-2-ylcarbamoyl)-methyl]-5-fluoro-1H-indole-2-carboxylic acid (1-isopropyl-piperidin-4-yl)-amide], the inhibitory constant (Ki) was 700 nM. The same measure, in the same setting: the value for `CC(C)N1CCC(NC(=O)c2cc3cc(F)cc(F)c3n2CC(=O)Nc2ccc(Cl)cn2)CC1` [Example 218, 1-[(5-Chloro-pyridin-2-ylcarbamoyl)-methyl]-5,7-difluoro-1H-indole-2-carboxylic acid (1-isopropyl-piperidin-4-yl)-amide] was 1 nM. Turning to `CCN1CC[C@H](NC(=O)c2cc3ccccc3n2Cc2cc(-c3ccc(Cl)s3)on2)C1` [Example 219], the inhibition constant Ki is 173 nM. Still for that read-out and setting: under `CCN1CC[C@@H](NC(=O)c2cc3ccccc3n2Cc2cc(-c3ccc(Cl)s3)on2)C1` [Example 220, R-1-[5-(5-Chloro-thiophen-2-yl)-isoxazol-3-ylmethyl]-1H-indole-2-carboxylic acid (1-ethyl-pyrrolidin-3-yl)-amide] stands 102 nM. The same measure, in the same setting: under `CCOC(=O)CN(C(=O)c1cc2c(C(F)(F)F)cccc2n1Cc1cc(-c2ccc(Cl)s2)on1)C1CCN(C(C)C)CC1` [Example 223, [{1-[5-(5-Chloro-thiophen-2-yl)-isoxazol-3-ylmethyl]-4-trifluoromethyl-1H-indole-2-carbonyl}-(1-isopropyl-piperidin-4-yl)-amino]-acetic acid ethyl ester] stands 110 nM; under `CCOC(=O)CN(C(=O)c1cc2c(C)ccc(C)c2n1Cc1cc(-c2ccc(Cl)s2)on1)C1CCN(C(C)C)CC1` [Example 224, [{1-[5-(5-Chloro-thiophen-2-yl)-isoxazol-3-ylmethyl]-4,7-dimethyl-1H-indole-2-carbonyl}-(1-isopropyl-piperidin-4-yl)-amino]-acetic acid ethyl ester], 21 nM. `CCOC(=O)CN(C(=O)c1cc2c(OC)ccc(OC)c2n1Cc1cc(-c2ccc(Cl)s2)on1)C1CCN(C(C)C)CC1` [Example 225, [{1-[5-(5-Chloro-thiophen-2-yl)-isoxazol-3-ylmethyl]-4,7-dimethoxy-1H-indole-2-carbonyl}-(1-isopropyl-piperidin-4-yl)-amino]-acetic acid ethyl ester]: the Ki was determined as 26 nM. For `CCOC(=O)CN(C(=O)c1cc2c(Cl)ccc(Cl)c2n1Cc1cc(-c2ccc(Cl)s2)on1)C1CCN(C(C)C)CC1` [Example 226, [{4,7-Dichloro-1-[5-(5-chloro-thiophen-2-yl)-isoxazol-3-ylmethyl]-1H-indole-2-carbonyl}-(1-isopropyl-piperidin-4-yl)-amino]-acetic acid ethyl ester], the inhibitory constant (Ki) came out at 83 nM.
